One molecule from ChEMBL document CHEMBL5247656, “Discovery of a Potent, Cooperative, and Selective SOS1 PROTAC ZZ151 with In Vivo Antitumor Efficacy in KRAS-Mutant Cancers” (J Med Chem, 2023) can be followed below.

Each structure is given as a SMILES string. Active and inactive are the calls of the source. The calls are words filed in the database; no cut-off is given here.

Data set [1] has as its target T1, Son of sevenless homolog 1 (Homo sapiens) (UniProt Q07889).
T1 sequence (whole entry): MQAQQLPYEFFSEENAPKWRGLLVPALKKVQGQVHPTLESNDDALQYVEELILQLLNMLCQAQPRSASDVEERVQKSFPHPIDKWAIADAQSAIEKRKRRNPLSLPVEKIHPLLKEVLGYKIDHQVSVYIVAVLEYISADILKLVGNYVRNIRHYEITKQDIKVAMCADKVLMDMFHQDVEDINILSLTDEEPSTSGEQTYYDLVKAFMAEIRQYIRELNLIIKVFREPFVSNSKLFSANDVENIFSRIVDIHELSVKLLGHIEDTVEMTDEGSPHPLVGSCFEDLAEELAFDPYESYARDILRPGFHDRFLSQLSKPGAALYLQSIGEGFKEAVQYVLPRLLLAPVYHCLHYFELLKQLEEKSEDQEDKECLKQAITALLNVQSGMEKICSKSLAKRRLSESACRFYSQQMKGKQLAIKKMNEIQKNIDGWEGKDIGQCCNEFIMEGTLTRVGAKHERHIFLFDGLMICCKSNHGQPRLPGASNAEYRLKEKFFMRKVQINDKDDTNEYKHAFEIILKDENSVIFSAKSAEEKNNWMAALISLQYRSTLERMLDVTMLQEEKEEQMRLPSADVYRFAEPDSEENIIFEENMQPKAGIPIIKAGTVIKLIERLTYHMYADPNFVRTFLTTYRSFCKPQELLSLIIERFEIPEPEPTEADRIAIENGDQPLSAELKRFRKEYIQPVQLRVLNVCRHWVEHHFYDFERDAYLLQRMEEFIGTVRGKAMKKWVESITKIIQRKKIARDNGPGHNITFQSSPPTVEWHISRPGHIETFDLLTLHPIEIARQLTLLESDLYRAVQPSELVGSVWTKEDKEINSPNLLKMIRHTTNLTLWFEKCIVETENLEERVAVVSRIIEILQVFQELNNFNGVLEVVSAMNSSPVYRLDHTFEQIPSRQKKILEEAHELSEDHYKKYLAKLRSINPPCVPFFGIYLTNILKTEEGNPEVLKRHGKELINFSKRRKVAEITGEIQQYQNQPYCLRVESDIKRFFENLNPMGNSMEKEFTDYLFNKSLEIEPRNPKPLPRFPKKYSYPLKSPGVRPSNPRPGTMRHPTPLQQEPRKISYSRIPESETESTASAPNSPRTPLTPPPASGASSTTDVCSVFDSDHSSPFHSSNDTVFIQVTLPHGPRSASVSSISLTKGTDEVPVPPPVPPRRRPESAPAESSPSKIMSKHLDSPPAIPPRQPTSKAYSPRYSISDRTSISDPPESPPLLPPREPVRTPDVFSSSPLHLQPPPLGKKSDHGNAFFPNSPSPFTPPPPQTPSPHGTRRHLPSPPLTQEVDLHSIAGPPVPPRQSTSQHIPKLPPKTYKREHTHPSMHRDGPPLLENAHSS
The data set is described as follows: Induction of SOS1 degradation in human ASPC1 cells at 1 uM incubated for 6 hrs by quantitative proteomics analysis. In kind it is cell-based.

In data set [2] the target is T2, von Hippel-Lindau disease tumor suppressor/Son of sevenless homolog 1 (Homo sapiens) (UniProt Q07889+P40337). In words: PROTAC activity at VHL/SOS1 in human NCI-H358 cells harboring KRAS G12C mutant assessed as induction of SOS1 degradation at 1 uM preincubated with (R)-1-(4-(4-((1-(3-amino-5-(trifluoromethyl)phenyl)ethyl)amino)-7-methoxy-2-methylquinazolin-6-yl)piperidin-1-yl)ethanone for 4 hrs followed by compound treatment and measured after 24 hrs by Immunoblot analysis. Format: cell-based.

Data set [3] has as its target T3, Son of sevenless homolog 1 (Homo sapiens, UniProt Q07889).
T3 sequence (Q07889 whole entry): T1 sequence (whole entry)
The data set is described as follows: Binding affinity to GST-tagged human SOS1 (564 to 1049 residues) expressed in Escherichia coli BL21 (DE3) cells assessed as ternary complex formation by measuring dissociation constant incubated for 15 mins in the presence of 6His tagged human VCB by fluorescence polarization-based displacement assay.

Data set [4] concerns the target T2, von Hippel-Lindau disease tumor suppressor/Son of sevenless homolog 1 (Homo sapiens). The data set is described as follows: In vivo PROTAC activity at VHL/SOS1 in human ASPC1 cells harboring KRAS G12D mutant xenografted BALB/c nude mouse assessed as decrease in phosphorylated ERK expression at 10 to 20 mg/kg, ip administered once daily for 3 weeks by Immunoblot analysis. Format: functional, organism-based. To be noted: dose 10-20 mg/kg.

A further data set relates to ASPC1. The data set is described as follows: Downregulation of ZCCHC10 in human ASPC1 cells at 1 uM incubated for 6 hrs by quantitative proteomics analysis. In kind it is functional, cell-based.
Data set [5] has as its target von Hippel-Lindau disease tumor suppressor/Son of sevenless homolog 1/Elongin-B/Elongin-C (Homo sapiens) (UniProt Q07889+P40337+Q15370+Q15369). In words: Binding affinity to GST tagged human SOS1(564 to 1049 residues)-6his tagged human VHL (54 to 213 residues)-human ElonginC (17 to 112 residues)-human ElonginB (1 to 104 residues) expressed in Escherichia coli BL21 (DE3) cells assessed as ternary complex formation by measuring maximal HTRF signals incubated for 15 mins by HTRF analysis.

Data set [6] can be described thus: AUC in BALB/c mouse at 10 mg/kg, ip measured upto 24 hrs by LC-MS/MS analysis. Format: ADME, organism-based. Further details: time < 24 hrs, dose 10 mg/kg, route ip. To be noted: in vivo.
The target of data set [7] is T2, von Hippel-Lindau disease tumor suppressor/Son of sevenless homolog 1 (Homo sapiens). The data set is described as follows: PROTAC activity at VHL/SOS1 in human NCI-H460 cells harboring KRAS Q61H mutant assessed as induction of SOS1 degradation by measuring maximal efficacy at 1 to 2000 nM incubated for 24 hrs by Immunoblot analysis relative to control. Format: cell-based. As to conditions: dose 1-2000 nM. Background: In western blotting, separated proteins are transferred to a membrane and probed.

Data set [8] has the same target. In words: PROTAC activity at VHL/SOS1 in human HCT-116 cells harboring KRAS G13D mutant assessed as induction of SOS1 degradation at 1 uM incubated for 2 to 4 hrs by Immunoblot analysis. In kind it is cell-based. As to conditions: time 2-4 hrs.

The Kd is a measure of binding affinity in units of concentration. For orientation: AUC means the area under the concentration-time curve, a measure of exposure. Broadly, the Emax is the greatest response seen or fitted, relative to the assay's reference. Turning to `COc1cc2nc(C)nc(N[C@H](C)c3cc(N)cc(C(F)(F)F)c3)c2cc1C1CCN(C(=O)CCCCCC(=O)N[C@H](C(=O)N2C[C@H](O)C[C@H]2C(=O)N[C@@H](C)c2ccc(-c3scnc3C)cc2)C(C)(C)C)CC1`, the result (in [1]; in data set [4]; in the data set with ASPC1; in data set [5]; in data set [8]) was Active. Further, the outcome in [2] was inactive. For the same molecule, the Kd in data set [3] stood at 8.13 nM. In data set [6], this molecule gave an AUC at 24 h of 14100 ng·h/mL. In addition, the Emax in [7] is more than 95%.
